What was measured:
[1] = Stability in simulated gastric fluid (SGF); type: in vitro ADME, porcine; conditions: simulated gastric fluid (SGF) with pepsin, pH 1.3, 15 μL of 1 mM peptide stock in 285 μL SGF, 37 °C, samples 0 min-24 h quenched with 0.2 M Na2CO3, RP-HPLC/LC-MS peak area as % of time 0, exponential one-phase decay fit, read-out: t1/2 in SGF
Method in brief: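 Peptides incubated at 37 °C in SGF (pepsin, pH 1.3) or SIF (porcine pancreatin, pH 6.8), sampled from 0 min to 24 h. Remaining peptide quantified by RP-HPLC peak area as % of time 0, with t1/2 from one-phase exponential decay fit. Metabolites identified by LC-MS.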

CXCR4 = target: T1, CXCR4 (Homo sapiens, UniProt P61073); assay: Inositol 1 phosphate (IP1) accumulation assay (HTRF) in COS-7 cells transfected with CXCR4; type: cell-based; conditions: COS-7 transiently co-transfected with CXCR4-eYFP and chimeric GαΔ6qi4myr; 10^-12 to 10^-5 M, 1 h, 37 °C; HTRF; n ≥ 2
T1 construct: expressed in transfected cells; host or cells: COS-7 (African green monkey), transient co-transfection with GαΔ6qi4myr
T1 sequence (P61073 whole entry): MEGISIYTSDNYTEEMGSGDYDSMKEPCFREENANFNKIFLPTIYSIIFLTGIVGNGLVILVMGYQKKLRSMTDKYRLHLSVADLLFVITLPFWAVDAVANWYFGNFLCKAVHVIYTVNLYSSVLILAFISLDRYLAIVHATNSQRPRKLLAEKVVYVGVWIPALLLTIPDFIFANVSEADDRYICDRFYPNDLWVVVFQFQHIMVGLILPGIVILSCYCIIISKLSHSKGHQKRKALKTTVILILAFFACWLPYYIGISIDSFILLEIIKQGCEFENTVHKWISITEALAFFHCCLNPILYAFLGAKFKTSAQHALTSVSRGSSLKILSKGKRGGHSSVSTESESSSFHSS
Method in brief: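 COS-7 cells transiently co-transfected with CXCR4-eYFP and chimeric GαΔ6qi4myr were stimulated 1 h at 37 °C in HBSS with 20 mM LiCl; final ligand 10^–12 to 10^–5 M CXCL12, 1 or 10 μM TFF3 forms. IP1 measured by competitive HTRF (665/620 ratio), normalized to CXCL12 response.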

Question: For `CC[C@H](C)[C@@H]1NC(=O)[C@H](CCCNC(=N)N)NC(=O)[C@H](CO)NC(=O)[C@H](CC(=O)O)NC(=O)[C@H](Cc2ccccc2)NC(=O)[C@@H]2CSSC[C@H](NC(=O)[C@H](CCC(N)=O)NC(=O)[C@H](CC(N)=O)NC(=O)[C@H](C)NC(=O)[C@H](CO)NC(=O)[C@H](CC(C)C)NC(=O)CNC(=O)[C@@H](NC(=O)[C@H](Cc3ccc(O)cc3)NC(=O)[C@H](CCC(=O)O)NC(=O)[C@@H](N)CCC(=O)O)C(C)C)C(=O)N[C@@H](C)C(=O)N[C@@H](C(C)C)C(=O)N3CCC[C@H]3C(=O)N[C@@H](C)C(=O)N[C@@H](CCCCN)C(=O)N[C@@H](CC(=O)O)C(=O)N[C@@H](CCCNC(=N)N)C(=O)N[C@@H](C(C)C)C(=O)N[C@@H](CC(=O)O)C(=O)N[C@H]3CSSC[C@H](NC(=O)CNC(=O)[C@H](CCCNC(=N)N)NC(=O)[C@H](CC(N)=O)NC(=O)[C@H](CC(N)=O)NC(=O)[C@H](CSSC[C@@H](C(=O)N[C@@H](Cc4ccccc4)C(=O)N[C@@H](CCCCN)C(=O)N4CCC[C@H]4C(=O)N[C@@H](CC(C)C)C(=O)N[C@@H](CCC(N)=O)C(=O)N[C@@H](CCC(=O)O)C(=O)N[C@@H](C)C(=O)N[C@@H](CCC(=O)O)C(=O)N[C@@H](CSCNC(C)=O)C(=O)N[C@H](C(=O)N[C@@H](Cc4ccccc4)C(=O)O)[C@@H](C)O)NC(=O)[C@H](Cc4c[nH]c5ccccc45)NC(=O)[C@@H]4CCCN4C(=O)[C@H](C(C)C)NC(=O)CNC(=O)[C@@H]4CCCN4C1=O)NC(=O)[C@H](CCC(=O)O)NC(=O)[C@H](CCCCN)NC(=O)[C@@H]1CCCN1C(=O)[C@H]([C@@H](C)O)NC(=O)[C@H](C(C)C)NC(=O)[C@H](Cc1c[nH]cn1)NC(=O)[C@@H]1CCCN1C(=O)[C@H](Cc1ccc(O)cc1)NC(=O)CNC3=O)C(=O)N2` [TFF3(C^57Acm)], which half-life at 50 μM [1] is on record?
Answer: < 5 min

Question: And the “concentration up to which CXCR4 was not activated (agonism, IP1 accumulation)” value (CXCR4)?
Answer: > 10 µM
